What was measured:
Format in all cases: biochemical
Conditions in all cases: 10 μM, ATP near Km
[1] = target: T1, DAPK3 (Homo sapiens, UniProt O43293); test: KinaseProfiler DAPK3
T1 construct: purchased Millipore, Inc. (KinaseProfiler service)
Description: (§1) The compound was run in duplicate at a concentration of ATP near the Km for each individual kinase according to Millipore's specifications.

[2] = target: T2, MST1 (Homo sapiens, UniProt Q13043); test: KinaseProfiler MST1
T2 construct: purchased Millipore, Inc. (KinaseProfiler service)
Description: as §1

[3] = target: T3, EphA1 (Homo sapiens, UniProt P21709); test: KinaseProfiler EphA1
T3 construct: purchased Millipore, Inc. (KinaseProfiler service)
Description: as §1

[4] = target: T4, FGFR4 (Homo sapiens, UniProt P22455); test: KinaseProfiler FGFR4
T4 construct: purchased Millipore, Inc. (KinaseProfiler service)
Description: as §1

[5] = target: T5, CK1gamma2 (Homo sapiens, UniProt P78368); test: KinaseProfiler CK1gamma2
T5 construct: purchased Millipore, Inc. (KinaseProfiler service)
Description: as §1

[6] = target: T6, PKD2 (Homo sapiens, UniProt Q9BZL6); test: KinaseProfiler PKD2
T6 construct: purchased Millipore, Inc. (KinaseProfiler service)
Description: as §1

[7] = target: T7, p38delta (Homo sapiens, UniProt O15264); test: KinaseProfiler p38delta
T7 construct: purchased Millipore, Inc. (KinaseProfiler service)
Description: as §1

[8] = target: T8, EphA2 (Homo sapiens, UniProt P29317); test: KinaseProfiler EphA2
T8 construct: purchased Millipore, Inc. (KinaseProfiler service)
Description: as §1

[9] = target: T9, LKB1 (Homo sapiens, UniProt Q15831); test: KinaseProfiler LKB1
T9 construct: purchased Millipore, Inc. (KinaseProfiler service)
Description: as §1

[10] = target: T10, MAP3K5 (Homo sapiens, UniProt Q99683); test: KinaseProfiler MAP3K5
T10 construct: purchased Millipore, Inc. (KinaseProfiler service)
Description: as §1

[11] = target: T11, TSSK2 (Homo sapiens, UniProt Q96PF2); test: KinaseProfiler TSSK2
T11 construct: purchased Millipore, Inc. (KinaseProfiler service)
Description: as §1

[12] = target: T12, MST2 (Homo sapiens, UniProt Q13188); test: KinaseProfiler MST2
T12 construct: purchased Millipore, Inc. (KinaseProfiler service)
Description: as §1

[13] = test system: CK1_y; test: KinaseProfiler CK1_y
[14] = target: T13, Rsk2 (Homo sapiens, UniProt P51812); test: KinaseProfiler Rsk2
T13 construct: purchased Millipore, Inc. (KinaseProfiler service)
Description: as §1

[15] = target: T14, CSK (Homo sapiens, UniProt P41240); test: KinaseProfiler CSK
T14 construct: purchased Millipore, Inc. (KinaseProfiler service)
Description: as §1

[16] = target: T15, Rsk3 (Homo sapiens, UniProt Q15349); test: KinaseProfiler Rsk3
T15 construct: purchased Millipore, Inc. (KinaseProfiler service)
Description: as §1

[17] = target: T16, c-RAF (Homo sapiens, UniProt P04049, Y340D/Y341D); test: KinaseProfiler c-RAF
T16 construct: purchased Millipore, Inc. (KinaseProfiler service)
Description: as §1

[18] = target: T17, MAPKAP-K5 (Homo sapiens, UniProt Q8IW41); test: KinaseProfiler MAPKAP-K5
T17 construct: purchased Millipore, Inc. (KinaseProfiler service)
Description: as §1

T5 sequence (P78368 whole entry): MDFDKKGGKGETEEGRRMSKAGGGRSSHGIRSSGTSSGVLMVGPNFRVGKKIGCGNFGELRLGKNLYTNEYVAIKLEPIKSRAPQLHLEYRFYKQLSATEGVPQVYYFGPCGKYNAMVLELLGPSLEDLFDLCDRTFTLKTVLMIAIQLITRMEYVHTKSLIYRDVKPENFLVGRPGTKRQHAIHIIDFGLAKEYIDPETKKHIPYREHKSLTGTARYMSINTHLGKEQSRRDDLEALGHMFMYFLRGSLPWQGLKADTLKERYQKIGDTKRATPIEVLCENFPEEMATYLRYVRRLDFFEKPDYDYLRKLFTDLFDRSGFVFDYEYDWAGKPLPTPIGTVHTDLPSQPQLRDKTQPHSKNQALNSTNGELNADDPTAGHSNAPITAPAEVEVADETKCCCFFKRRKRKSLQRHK
T12 sequence (Q13188 whole entry): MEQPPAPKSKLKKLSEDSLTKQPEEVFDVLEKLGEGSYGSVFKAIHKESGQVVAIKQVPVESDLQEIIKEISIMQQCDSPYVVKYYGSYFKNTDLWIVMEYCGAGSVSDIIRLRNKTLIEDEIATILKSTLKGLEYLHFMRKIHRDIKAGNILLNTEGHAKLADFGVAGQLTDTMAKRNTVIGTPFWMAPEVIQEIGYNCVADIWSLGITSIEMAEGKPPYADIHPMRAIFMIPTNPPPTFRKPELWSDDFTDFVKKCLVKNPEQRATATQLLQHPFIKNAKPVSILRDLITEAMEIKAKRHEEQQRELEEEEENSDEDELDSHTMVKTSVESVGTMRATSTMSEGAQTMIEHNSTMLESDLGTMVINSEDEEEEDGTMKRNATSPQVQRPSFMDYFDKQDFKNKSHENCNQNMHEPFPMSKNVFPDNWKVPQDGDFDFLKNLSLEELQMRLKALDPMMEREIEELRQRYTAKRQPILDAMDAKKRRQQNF
T11 sequence (Q96PF2 whole entry): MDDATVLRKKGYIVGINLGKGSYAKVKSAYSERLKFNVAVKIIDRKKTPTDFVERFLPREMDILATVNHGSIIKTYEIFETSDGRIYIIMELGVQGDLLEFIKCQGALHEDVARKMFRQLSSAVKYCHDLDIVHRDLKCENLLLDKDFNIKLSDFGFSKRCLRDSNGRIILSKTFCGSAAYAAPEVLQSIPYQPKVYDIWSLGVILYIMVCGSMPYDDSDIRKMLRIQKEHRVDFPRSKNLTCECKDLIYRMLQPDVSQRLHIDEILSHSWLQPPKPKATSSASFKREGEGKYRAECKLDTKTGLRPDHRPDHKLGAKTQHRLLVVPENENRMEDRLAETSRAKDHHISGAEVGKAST
T13 sequence (P51812 whole entry): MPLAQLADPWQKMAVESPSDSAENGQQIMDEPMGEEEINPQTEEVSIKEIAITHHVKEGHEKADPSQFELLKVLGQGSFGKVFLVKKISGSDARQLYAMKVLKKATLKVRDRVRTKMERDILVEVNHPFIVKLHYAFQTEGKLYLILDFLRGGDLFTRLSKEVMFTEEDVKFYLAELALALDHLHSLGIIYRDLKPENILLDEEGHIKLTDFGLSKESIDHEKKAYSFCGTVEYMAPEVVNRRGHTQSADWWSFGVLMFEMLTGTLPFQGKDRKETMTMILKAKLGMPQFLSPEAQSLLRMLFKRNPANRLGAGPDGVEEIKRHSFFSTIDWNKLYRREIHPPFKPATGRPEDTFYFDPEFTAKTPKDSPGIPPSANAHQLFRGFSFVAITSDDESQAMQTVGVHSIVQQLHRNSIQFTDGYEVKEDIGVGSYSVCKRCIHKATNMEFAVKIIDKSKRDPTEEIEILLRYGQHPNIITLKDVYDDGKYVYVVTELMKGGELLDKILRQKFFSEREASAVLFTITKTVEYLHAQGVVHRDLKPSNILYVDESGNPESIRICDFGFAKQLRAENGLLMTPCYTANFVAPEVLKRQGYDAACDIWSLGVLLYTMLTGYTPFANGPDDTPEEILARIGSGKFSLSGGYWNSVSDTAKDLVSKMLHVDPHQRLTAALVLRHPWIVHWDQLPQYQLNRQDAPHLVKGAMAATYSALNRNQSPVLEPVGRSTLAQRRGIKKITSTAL
T9 sequence (Q15831 whole entry): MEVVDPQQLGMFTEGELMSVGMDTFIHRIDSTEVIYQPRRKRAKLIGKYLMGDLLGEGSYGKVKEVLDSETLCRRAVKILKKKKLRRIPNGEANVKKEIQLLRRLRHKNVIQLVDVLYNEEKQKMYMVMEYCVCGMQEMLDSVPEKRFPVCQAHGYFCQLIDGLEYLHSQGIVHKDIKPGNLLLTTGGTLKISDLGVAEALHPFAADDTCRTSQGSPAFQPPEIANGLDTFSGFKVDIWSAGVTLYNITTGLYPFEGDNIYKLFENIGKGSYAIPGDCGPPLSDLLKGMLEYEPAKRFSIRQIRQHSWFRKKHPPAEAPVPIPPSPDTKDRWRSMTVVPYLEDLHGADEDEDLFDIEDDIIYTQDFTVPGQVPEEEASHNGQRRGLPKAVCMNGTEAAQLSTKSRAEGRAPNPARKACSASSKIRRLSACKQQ
T9 sequence (Q7RTN6 whole entry partner): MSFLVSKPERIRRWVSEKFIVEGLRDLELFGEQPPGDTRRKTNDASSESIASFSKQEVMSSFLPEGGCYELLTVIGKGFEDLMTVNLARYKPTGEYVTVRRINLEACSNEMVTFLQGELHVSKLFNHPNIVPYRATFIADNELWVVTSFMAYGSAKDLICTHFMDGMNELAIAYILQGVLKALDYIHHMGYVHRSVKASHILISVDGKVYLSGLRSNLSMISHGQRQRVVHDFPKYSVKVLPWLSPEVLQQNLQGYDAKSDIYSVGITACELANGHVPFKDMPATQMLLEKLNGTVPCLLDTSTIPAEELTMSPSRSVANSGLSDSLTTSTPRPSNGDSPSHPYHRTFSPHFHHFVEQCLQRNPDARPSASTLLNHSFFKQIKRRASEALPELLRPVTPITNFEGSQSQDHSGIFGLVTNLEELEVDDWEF
T9 sequence (Q9Y376 whole entry partner): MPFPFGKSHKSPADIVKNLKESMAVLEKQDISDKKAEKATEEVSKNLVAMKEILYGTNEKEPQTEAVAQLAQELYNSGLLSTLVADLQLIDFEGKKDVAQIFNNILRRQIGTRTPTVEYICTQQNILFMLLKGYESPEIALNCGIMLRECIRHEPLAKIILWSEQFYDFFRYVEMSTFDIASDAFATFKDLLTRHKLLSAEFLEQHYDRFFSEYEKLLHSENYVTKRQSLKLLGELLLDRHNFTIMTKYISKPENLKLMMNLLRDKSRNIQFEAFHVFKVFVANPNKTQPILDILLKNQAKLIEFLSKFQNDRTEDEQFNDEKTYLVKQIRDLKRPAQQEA
T17 sequence (Q8IW41 whole entry): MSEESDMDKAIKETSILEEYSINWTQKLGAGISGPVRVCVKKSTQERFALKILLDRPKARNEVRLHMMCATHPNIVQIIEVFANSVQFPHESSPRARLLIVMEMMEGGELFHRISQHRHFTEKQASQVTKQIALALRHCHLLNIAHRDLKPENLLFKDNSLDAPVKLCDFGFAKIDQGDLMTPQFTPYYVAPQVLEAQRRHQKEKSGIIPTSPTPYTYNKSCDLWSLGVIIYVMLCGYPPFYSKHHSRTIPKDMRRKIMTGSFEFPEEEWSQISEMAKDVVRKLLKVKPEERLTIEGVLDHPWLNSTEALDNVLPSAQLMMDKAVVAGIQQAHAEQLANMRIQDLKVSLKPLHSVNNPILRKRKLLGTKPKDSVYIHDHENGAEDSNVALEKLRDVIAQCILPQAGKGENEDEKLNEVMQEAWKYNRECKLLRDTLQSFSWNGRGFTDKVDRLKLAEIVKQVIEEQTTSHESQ
T15 sequence (Q15349 whole entry): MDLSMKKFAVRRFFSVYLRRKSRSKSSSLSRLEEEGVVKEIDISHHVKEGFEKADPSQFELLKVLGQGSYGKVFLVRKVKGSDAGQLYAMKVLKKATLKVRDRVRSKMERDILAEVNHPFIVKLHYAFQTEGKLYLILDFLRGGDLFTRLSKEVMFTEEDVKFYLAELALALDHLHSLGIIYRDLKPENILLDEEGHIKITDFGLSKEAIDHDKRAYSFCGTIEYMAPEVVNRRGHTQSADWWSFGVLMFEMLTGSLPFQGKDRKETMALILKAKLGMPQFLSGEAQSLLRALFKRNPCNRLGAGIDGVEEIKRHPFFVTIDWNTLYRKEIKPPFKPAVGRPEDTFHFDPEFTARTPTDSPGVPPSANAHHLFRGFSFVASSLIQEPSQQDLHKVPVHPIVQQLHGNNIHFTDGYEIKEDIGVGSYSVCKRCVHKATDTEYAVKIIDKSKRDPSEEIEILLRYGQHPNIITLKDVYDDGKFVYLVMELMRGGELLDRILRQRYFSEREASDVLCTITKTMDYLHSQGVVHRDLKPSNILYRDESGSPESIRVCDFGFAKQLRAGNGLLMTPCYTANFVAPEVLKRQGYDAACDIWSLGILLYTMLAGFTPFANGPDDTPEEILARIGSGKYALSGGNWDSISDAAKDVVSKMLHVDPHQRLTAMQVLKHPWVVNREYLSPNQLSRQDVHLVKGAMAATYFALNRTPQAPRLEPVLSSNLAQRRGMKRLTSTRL
T7 sequence (O15264 whole entry): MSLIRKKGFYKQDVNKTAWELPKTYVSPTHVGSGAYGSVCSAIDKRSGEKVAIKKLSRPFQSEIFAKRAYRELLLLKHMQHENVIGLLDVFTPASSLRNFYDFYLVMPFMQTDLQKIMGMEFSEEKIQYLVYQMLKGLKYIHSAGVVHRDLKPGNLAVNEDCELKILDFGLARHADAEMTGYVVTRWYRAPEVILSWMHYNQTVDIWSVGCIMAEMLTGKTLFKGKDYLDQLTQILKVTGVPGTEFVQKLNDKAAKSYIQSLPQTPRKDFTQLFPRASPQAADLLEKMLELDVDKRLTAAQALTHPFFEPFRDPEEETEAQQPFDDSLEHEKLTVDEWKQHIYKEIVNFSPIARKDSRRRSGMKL

Structure (SMILES): Cc1c(-c2cnn(C)c2)nn(-c2ccccc2)c1NC(=O)Nc1cc(C(F)(F)F)nn1-c1ccccc1 [Example 3, 1-(1′,4-dimethyl-1-phenyl-1H,1′H-[3,4′-bipyrazol]-5-yl)-3-(1-phenyl-3-(trifluoromethyl)-1H-pyrazol-5-yl)urea]
- Avg POC [1]: 118.5 POC
- Avg POC [2]: 92.5 POC
- Avg POC [3]: 93.5 POC
- Avg POC [4]: 174.5 POC
- Avg POC [5]: 109 POC
- Avg POC [6]: 115 POC
- Avg POC [7]: 92.5 POC
- Avg POC [8]: 120 POC
- Avg POC [9]: 95.5 POC
- Avg POC [10]: 102 POC
- Avg POC [11]: 132.5 POC
- Avg POC [12]: 102.5 POC
- Avg POC [13]: 98 POC
- Avg POC [14]: 134 POC
- Avg POC [15]: 137.5 POC
- Avg POC [16]: 104.5 POC
- Avg POC [17]: 94.5 POC
- Avg POC [18]: 108.5 POC

Reference: patent US9809578B2, “Pyrazolyl urea, thiourea, guanidine and cyanoguanidine compounds as trkA kinase inhibitors” (Array BioPharma Inc., priority 2012, dated 2017)
